Assay results from ChEMBL document CHEMBL2434896, “Carbonic anhydrase inhibitors. Synthesis of heterocyclic 4-substituted pyridine-3-sulfonamide derivatives and their inhibition of the human cytosolic isozymes I and II and transmembrane tumor-associated isozymes IX and XII” (Eur J Med Chem, 2013).
The source made the active and inactive calls. The rule behind the calls is not given here.

Legend:
U-251 = experiment: Growth inhibition of human U251 cells at 10 uM after 48 hrs by sulforhodamine B assay; format: functional; settings: U-251, 48 h, read-out: GI
SK-MEL-28 = experiment: Growth inhibition of human SK-MEL-28 cells at 10 uM after 48 hrs by sulforhodamine B assay; format: functional, cell-based
UO-31 = experiment: Growth inhibition of human UO31 cells at 10 uM after 48 hrs by sulforhodamine B assay; format: functional; settings: UO-31, 48 h, read-out: GI
NCI-H322M = experiment: Growth inhibition of human NCI-H322M cells at 10 uM after 48 hrs by sulforhodamine B assay; format: functional; settings: read-out: GI
RPMI-8226 = experiment: Growth inhibition of human RPMI8226 cells at 10 uM after 48 hrs by sulforhodamine B assay; format: functional; settings: RPMI-8226, 48 h, read-out: GI
SK-MEL-2 = experiment: Growth inhibition of human SK-MEL-2 cells at 10 uM after 48 hrs by sulforhodamine B assay; format: functional
DU-145 = experiment: Growth inhibition of human DU145 cells at 10 uM after 48 hrs by sulforhodamine B assay; format: functional
HOP-62 = experiment: Growth inhibition of human HOP62 cells at 10 uM after 48 hrs by sulforhodamine B assay; format: functional
OVCAR-8 = experiment: Growth inhibition of human OVCAR8 cells at 10 uM after 48 hrs by sulforhodamine B assay; format: functional; settings: OVCAR-8, 48 h, read-out: GI
Hs-578T = experiment: Growth inhibition of human Hs 578T cells at 10 uM after 48 hrs by sulforhodamine B assay; format: functional
NCI-H23 = experiment: Growth inhibition of human NCI-H23 cells at 10 uM after 48 hrs by sulforhodamine B assay; format: functional
Malme-3M = experiment: Growth inhibition of human MALME-3M cells at 10 uM after 48 hrs by sulforhodamine B assay; format: functional; settings: read-out: GI
SF-268 = experiment: Growth inhibition of human SF268 cells at 10 uM after 48 hrs by sulforhodamine B assay; format: functional
SK-MEL-5 = experiment: Growth inhibition of human SK-MEL-5 cells at 10 uM after 48 hrs by sulforhodamine B assay; format: functional; settings: SK-MEL-5, 48 h, read-out: GI
SNB-19 = experiment: Growth inhibition of human SNB19 cells at 10 uM after 48 hrs by sulforhodamine B assay; format: functional
MDA-MB-231 = experiment: Growth inhibition of human MDA-MB-231 cells at 10 uM after 48 hrs by sulforhodamine B assay; format: functional
786-0 = experiment: Growth inhibition of human 786-0 cells at 10 uM after 48 hrs by sulforhodamine B assay; format: functional
MOLT-4 = experiment: Growth inhibition of human MOLT4 cells at 10 uM after 48 hrs by sulforhodamine B assay; format: functional; settings: MOLT-4, 48 h, read-out: GI
LOX IMVI = experiment: Growth inhibition of human LOXIMVI cells at 10 uM after 48 hrs by sulforhodamine B assay; format: functional
HT-29 = experiment: Growth inhibition of human HT-29 cells at 10 uM after 48 hrs by sulforhodamine B assay; format: functional; settings: HT-29, 48 h, read-out: GI
RXF 393 = experiment: Growth inhibition of human RXF393 cells at 10 uM after 48 hrs by sulforhodamine B assay; format: functional
NCI-H460 = experiment: Growth inhibition of human NCI-H460 cells at 10 uM after 48 hrs by sulforhodamine B assay; format: functional
TK-10 = experiment: Growth inhibition of human TK10 cells at 10 uM after 48 hrs by sulforhodamine B assay; format: functional; settings: TK-10, 48 h, read-out: GI
BT-549 = experiment: Growth inhibition of human BT549 cells at 10 uM after 48 hrs by sulforhodamine B assay; format: functional; settings: BT-549, 48 h, read-out: GI
HCT-15 = experiment: Growth inhibition of human HCT15 cells at 10 uM after 48 hrs by sulforhodamine B assay; format: functional; settings: HCT-15, 48 h, read-out: GI
ACHN = experiment: Growth inhibition of human ACHN cells at 10 uM after 48 hrs by sulforhodamine B assay; format: functional; settings: read-out: GI
OVCAR-4 = experiment: Growth inhibition of human OVCAR4 cells at 10 uM after 48 hrs by sulforhodamine B assay; format: functional
T47D = experiment: Growth inhibition of human T47D cells at 10 uM after 48 hrs by sulforhodamine B assay; format: functional; settings: read-out: GI
NCI/ADR-RES = experiment: Growth inhibition of human NCI-ADR-RES cells at 10 uM after 48 hrs by sulforhodamine B assay; format: functional
SR = experiment: Growth inhibition of human SR cells at 10 uM after 48 hrs by sulforhodamine B assay; format: functional; settings: read-out: GI
CCRF-CEM = experiment: Growth inhibition of human CCRF-CEM cells at 10 uM after 48 hrs by sulforhodamine B assay; format: functional
M14 = experiment: Growth inhibition of human M14 cells at 10 uM after 48 hrs by sulforhodamine B assay; format: functional; settings: M14, 48 h, read-out: GI
SN12C = experiment: Growth inhibition of human SN12C cells at 10 uM after 48 hrs by sulforhodamine B assay; format: functional
UACC-257 = experiment: Growth inhibition of human UACC257 cells at 10 uM after 48 hrs by sulforhodamine B assay; format: functional
SK-OV-3 = experiment: Growth inhibition of human SKOV3 cells at 10 uM after 48 hrs by sulforhodamine B assay; format: functional
SW-620 = experiment: Growth inhibition of human SW620 cells at 10 uM after 48 hrs by sulforhodamine B assay; format: functional; settings: SW-620, 48 h, read-out: GI
SF-295 = experiment: Growth inhibition of human SF295 cells at 10 uM after 48 hrs by sulforhodamine B assay; format: functional; settings: SF-295, 48 h, read-out: GI
PC-3 = experiment: Growth inhibition of human PC3 cells at 10 uM after 48 hrs by sulforhodamine B assay; format: functional; settings: PC-3, 48 h, read-out: GI
UACC-62 = experiment: Growth inhibition of human UACC62 cells at 10 uM after 48 hrs by sulforhodamine B assay; format: functional; settings: UACC-62, 48 h, read-out: GI
COLO 205 = experiment: Growth inhibition of human COLO205 cells at 10 uM after 48 hrs by sulforhodamine B assay; format: functional
NCI-H522 = experiment: Growth inhibition of human NCI-H522 cells at 10 uM after 48 hrs by sulforhodamine B assay; format: functional; settings: NCI-H522, 48 h, read-out: GI
OVCAR-5 = experiment: Growth inhibition of human OVCAR5 cells at 10 uM after 48 hrs by sulforhodamine B assay; format: functional; settings: OVCAR-5, 48 h, read-out: GI
HCC 2998 = experiment: Growth inhibition of human HCC2998 cells at 10 uM after 48 hrs by sulforhodamine B assay; format: functional
HCT-116 = experiment: Growth inhibition of human HCT116 cells at 10 uM after 48 hrs by sulforhodamine B assay; format: functional; settings: HCT-116, 48 h, read-out: GI

Question: Which results are given for `Cc1ccc(C)c(N2CCN(c3ccncc3S(N)(=O)=O)CC2)c1`?
Answer: inhibition of growth at 10 µM (U-251): 20%; growth inhibition (GI) (SK-MEL-28): inactive; inhibition of growth at 10 µM (UO-31): 15%; inhibition of growth at 10 µM (NCI-H322M): 7%; inhibition of growth at 10 µM (RPMI-8226): 8%; growth inhibition (GI) (SK-MEL-2): inactive; growth inhibition (GI) (DU-145): inactive; growth inhibition (GI) (HOP-62): inactive; inhibition of growth at 10 µM (OVCAR-8): 4%; growth inhibition (GI) (Hs-578T): inactive; growth inhibition (GI) (NCI-H23): inactive; inhibition of growth at 10 µM (Malme-3M): 15%; growth inhibition (GI) (SF-268): inactive; inhibition of growth at 10 µM (SK-MEL-5): 3%; growth inhibition (GI) (SNB-19): inactive; growth inhibition (GI) (MDA-MB-231): inactive; growth inhibition (GI) (786-0): inactive; inhibition of growth at 10 µM (MOLT-4): 11%; growth inhibition (GI) (LOX IMVI): inactive; inhibition of growth at 10 µM (HT-29): 9%; growth inhibition (GI) (RXF 393): inactive; growth inhibition (GI) (NCI-H460): inactive; inhibition of growth at 10 µM (TK-10): 7%; inhibition of growth at 10 µM (BT-549): 8%; inhibition of growth at 10 µM (HCT-15): 12%; inhibition of growth at 10 µM (ACHN): 6%; growth inhibition (GI) (OVCAR-4): inactive; inhibition of growth at 10 µM (T47D): 15%; growth inhibition (GI) (NCI/ADR-RES): inactive; inhibition of growth at 10 µM (SR): 10%; growth inhibition (GI) (CCRF-CEM): inactive; inhibition of growth at 10 µM (M14): 1%; growth inhibition (GI) (SN12C): inactive; growth inhibition (GI) (UACC-257): inactive; growth inhibition (GI) (SK-OV-3): inactive; inhibition of growth at 10 µM (SW-620): 3%; inhibition of growth at 10 µM (SF-295): 1%; inhibition of growth at 10 µM (PC-3): 4%; inhibition of growth at 10 µM (UACC-62): 7%; growth inhibition (GI) (COLO 205): inactive; inhibition of growth at 10 µM (NCI-H522): 15%; inhibition of growth at 10 µM (OVCAR-5): 3%; growth inhibition (GI) (HCC 2998): inactive; inhibition of growth at 10 µM (HCT-116): 9%
